Results: patent publication US20260132140A1, “IMIDAZOLYL-AMINO-PYRAZINE-CARBONITRILS AS CHK-1 INHIBITORS” (BenevolentAI Bio Limited, priority 2022, published 2026)

How the values were obtained:
[1] = molecular target: T1, human Chk1 kinase (Homo sapiens, UniProt O14757); assay: biochemical
T1 sequence (O14757 1-476): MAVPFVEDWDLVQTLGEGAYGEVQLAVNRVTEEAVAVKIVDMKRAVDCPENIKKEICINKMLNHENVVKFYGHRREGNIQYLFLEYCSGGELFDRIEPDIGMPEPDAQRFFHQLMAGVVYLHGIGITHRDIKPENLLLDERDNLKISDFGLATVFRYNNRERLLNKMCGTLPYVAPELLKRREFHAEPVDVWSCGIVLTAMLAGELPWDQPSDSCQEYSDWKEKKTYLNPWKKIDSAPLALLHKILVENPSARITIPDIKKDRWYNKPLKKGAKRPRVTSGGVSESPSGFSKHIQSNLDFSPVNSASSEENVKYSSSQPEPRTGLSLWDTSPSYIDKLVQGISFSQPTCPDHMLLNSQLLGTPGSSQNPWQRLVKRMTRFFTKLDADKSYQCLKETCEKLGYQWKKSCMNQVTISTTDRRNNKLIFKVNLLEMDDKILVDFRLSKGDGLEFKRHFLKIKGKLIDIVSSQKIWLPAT

[2] = molecular target: human Chk2 kinase (Homo sapiens, UniProt O96017); assay: biochemical
Sequence of human Chk2 kinase (O96017 whole entry): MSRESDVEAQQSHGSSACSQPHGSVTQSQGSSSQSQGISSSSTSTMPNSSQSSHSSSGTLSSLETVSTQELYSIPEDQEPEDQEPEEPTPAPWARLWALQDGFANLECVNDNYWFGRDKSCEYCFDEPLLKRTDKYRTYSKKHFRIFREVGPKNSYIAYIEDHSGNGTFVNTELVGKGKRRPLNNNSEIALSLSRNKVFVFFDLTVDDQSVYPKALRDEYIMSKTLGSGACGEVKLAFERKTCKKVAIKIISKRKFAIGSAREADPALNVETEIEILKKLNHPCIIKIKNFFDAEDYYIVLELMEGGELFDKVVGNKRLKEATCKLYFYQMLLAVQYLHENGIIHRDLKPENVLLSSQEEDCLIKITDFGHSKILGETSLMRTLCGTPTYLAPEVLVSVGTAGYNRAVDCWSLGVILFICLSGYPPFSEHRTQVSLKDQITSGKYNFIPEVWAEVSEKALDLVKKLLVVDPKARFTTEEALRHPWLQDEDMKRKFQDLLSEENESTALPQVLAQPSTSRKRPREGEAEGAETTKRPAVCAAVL

Compound | IC50 [1] | IC50 [2]
CN1CCC2(CC1)CCN(c1cccc(-n3cnc(Nc4cnc(C#N)cn4)c3)c1)C2 [Example 39, 5-((1-(3-(8-Methyl-2,8-diazaspiro[4.5]decan-2-yl)phenyl)-1H-imidazol-4-yl)amino)pyrazine-2-carbonitrile] | 10 to 31.6 nM | 10000 to 100000 nM
N#Cc1cnc(Nc2cn(-c3ccc(N4CC[C@@H](N5CCOCC5)C4)cc3)cn2)cn1 [Example 72, (R)-5-((1-(4-(3-Morpholinopyrrolidin-1-yl)phenyl)-1H-imidazol-4-yl)amino)pyrazine-2-carbonitrile] | 10 to 31.6 nM | 10000 to 100000 nM
COc1cc(OC2CN(C(C)(C)C)C2)ccc1-n1cnc(Nc2cnc(C#N)cn2)c1 [Example 53, 5-((1-(4-((1-(tert-Butyl)azetidin-3-yl)oxy)-2-methoxyphenyl)-1H-imidazol-4-yl)amino)pyrazine-2-carbonitrile] | 10 to 31.6 nM | 10000 to 100000 nM
CN(C)[C@H]1CN(c2ccc(-n3cnc(Nc4cnc(C#N)cn4)c3)cc2)C[C@H]1F [Example 62, 5-((1-(4-((3S,4R)-3-(Dimethylamino)-4-fluoropyrrolidin-1-yl)phenyl)-1H-imidazol-4-yl)amino)pyrazine-2-carbonitrile] | 10 to 31.6 nM | 1000 to 10000 nM
COc1cc(CN2CC[C@@H](F)C2)cc(F)c1-n1cnc(Nc2cnc(C#N)cn2)c1 [Example 5, (R)-5-((1-(2-Fluoro-4-((3-fluoropyrrolidin-1-yl)methyl)-6-methoxyphenyl)-1H-imidazol-4-yl)amino)pyrazine-2-carbonitrile] | 316 to 1000 nM | > 100000 nM
CN1CC[C@@H]2CN(c3ccc(-n4cnc(Nc5cnc(C#N)cn5)c4)cc3)C[C@@H]21 [Example 87, 5-((1-(4-((3aR,6aR)-1-Methylhexahydropyrrolo[3,4-b]pyrrol-5(1H)-yl)phenyl)-1H-imidazol-4-yl)amino)pyrazine-2-carbonitrile] | 10 to 31.6 nM | 10000 to 100000 nM
CN(C)[C@@H]1CCN(c2cccc(-n3cnc(Nc4cnc(C#N)cn4)c3)c2)C1 [Example 38, (R)-5-((1-(3-(3-(Dimethylamino)pyrrolidin-1-yl)phenyl)-1H-imidazol-4-yl)amino)pyrazine-2-carbonitrile] | 10 to 31.6 nM | 10000 to 100000 nM
CN1CC[C@@H]2[C@H]1CCN2c1ccc(-n2cnc(Nc3cnc(C#N)cn3)c2)cc1 [Example 91, 5-((1-(4-((3aR,6aR)-4-Methylhexahydropyrrolo[3,2-b]pyrrol-1(2H)-yl)phenyl)-1H-imidazol-4-yl)amino)pyrazine-2-carbonitrile] | 10 to 31.6 nM | 10000 to 100000 nM
COc1cc(N2CC3(CN(C)C3)C2)ccc1-n1cnc(Nc2cnc(C#N)cn2)c1 [Example 46, 5-((1-(2-Methoxy-4-(6-methyl-2,6-diazaspiro[3.3]heptan-2-yl)phenyl)-1H-imidazol-4-yl)amino)pyrazine-2-carbonitrile] | 10 to 31.6 nM | 10000 to 100000 nM
CN1C[C@@H]2CC[C@H]1CN2c1ccc(-n2cnc(Nc3cnc(C#N)cn3)c2)cc1 [Example 42, 5-((1-(4-((1S,4S)-5-Methyl-2,5-diazabicyclo[2.2.2]octan-2-yl)phenyl)-1H-imidazol-4-yl)amino)pyrazine-2-carbonitrile] | < 10 nM | 10000 to 100000 nM

The remaining lines, values ahead:

IC50 [1] | IC50 [2] | Compound
10 to 31.6 nM | 10000 to 100000 nM | CN(C)C1CCCN(c2ccc(-n3cnc(Nc4cnc(C#N)cn4)c3)cc2)C1 (single isomer, unassigned) [Example 122, 5-((1-(4-(3-(Dimethylamino)piperidin-1-yl)phenyl)-1H-imidazol-4-yl)amino)pyrazine-2-carbonitrile]
10 to 31.6 nM | > 100000 nM | CN(CCO)C1CCN(c2cccc(-n3cnc(Nc4cnc(C#N)cn4)c3)c2)C1 (single isomer, unassigned) [Example 109, 5-((1-(3-(3-((2-Hydroxyethyl)(methyl)amino)pyrrolidin-1-yl)phenyl)-1H-imidazol-4-yl)amino)pyrazine-2-carbonitrile]
31.6 to 100 nM | 10000 to 100000 nM | N#Cc1cnc(Nc2cn(-c3cccc(N4C[C@@H](N)[C@@H](F)C4)c3)cn2)cn1 [Example 151, 5-((1-(3-((3R,4S)-3-Amino-4-fluoropyrrolidin-1-yl)phenyl)-1H-imidazol-4-yl)amino)pyrazine-2-carbonitrile]
10 to 31.6 nM | 10000 to 100000 nM | CN1CC2(CCN2c2ccc(-n3cnc(Nc4cnc(C#N)cn4)c3)cc2)C1 [Example 99, 5-((1-(4-(6-Methyl-1,6-diazaspiro[3.3]heptan-1-yl)phenyl)-1H-imidazol-4-yl)amino)pyrazine-2-carbonitrile]
10 to 31.6 nM | 1000 to 10000 nM | N#Cc1cnc(Nc2cn(-c3ccc(N4CC(F)(CN)C4)cc3)cn2)cn1 [Example 159, 5-((1-(4-(3-(Aminomethyl)-3-fluoroazetidin-1-yl)phenyl)-1H-imidazol-4-yl)amino)pyrazine-2-carbonitrile]
31.6 to 100 nM | 10000 to 100000 nM | N#Cc1cnc(Nc2cn(-c3ccc(CN4CCC(F)CC4)cc3)cn2)cn1 [Example 174, 5-((1-(4-((4-Fluoropiperidin-1-yl)methyl)phenyl)-1H-imidazol-4-yl)amino)pyrazine-2-carbonitrile]
10 to 31.6 nM | 1000 to 10000 nM | N#Cc1cnc(Nc2cn(-c3ccc(N4CCC(N5CC(F)C5)C4)cc3)cn2)cn1 (single isomer, unassigned) [Example 130, 5-((1-(4-(3-(3-Fluoroazetidin-1-yl)pyrrolidin-1-yl)phenyl)-1H-imidazol-4-yl)amino)pyrazine-2-carbonitrile]
100 to 316 nM | > 100000 nM | CCN(CC)C1(c2ccc(-n3cnc(Nc4cnc(C#N)cn4)c3)cc2)CC1 [Example 179, 5-((1-(4-(1-(Diethylamino)cyclopropyl)phenyl)-1H-imidazol-4-yl)amino)pyrazine-2-carbonitrile]
10 to 31.6 nM | 10000 to 100000 nM | CCNCc1ccc(-n2cnc(Nc3cnc(C#N)cn3)c2)c(OC)c1 [Example 170, 5-((1-(4-((Ethylamino)methyl)-2-methoxyphenyl)-1H-imidazol-4-yl)amino)pyrazine-2-carbonitrile]
31.6 to 100 nM | 10000 to 100000 nM | CN1CCN(c2ccc(-n3cnc(Nc4cnc(C#N)cn4)c3)cc2)CC1(C)C [Example 97, 5-((1-(4-(3,3,4-Trimethylpiperazin-1-yl)phenyl)-1H-imidazol-4-yl)amino)pyrazine-2-carbonitrile]
10 to 31.6 nM | > 100000 nM | CC(C)C1CN(C2CCN(c3ccc(-n4cnc(Nc5cnc(C#N)cn5)c4)cc3)C2)C1 (single isomer, unassigned) [Example 134, 5-((1-(4-(3-(3-Isopropylazetidin-1-yl)pyrrolidin-1-yl)phenyl)-1H-imidazol-4-yl)amino)pyrazine-2-carbonitrile]
< 10 nM | 1000 to 10000 nM | N#Cc1cnc(Nc2cn(-c3ccc(N4CCC(N5CCC5)C4)cc3)cn2)cn1 (single isomer, unassigned) [Example 114, 5-((1-(4-(3-(Azetidin-1-yl)pyrrolidin-1-yl)phenyl)-1H-imidazol-4-yl)amino)pyrazine-2-carbonitrile]
100 to 316 nM | 10000 to 100000 nM | N#Cc1cnc(Nc2cn(-c3ccc(CN4CCOCC4)cc3)cn2)cn1 [Example 142, 5-((1-(4-(Morpholinomethyl)phenyl)-1H-imidazol-4-yl)amino)pyrazine-2-carbonitrile]
